Test results reported in PubChem BioAssay AID328 (DTP/NCI, 2004).
Several values for one entry are separate records, joined by “and”; a condition that tells them apart may be missing. Identical values can stand only once. Inconclusive results and toxic doses are left out. Residues, ends and D or L forms follow the SMILES beside them. *: point of attachment. Boc = CC(C)(C)OC(=O)*; OBn = c1ccc(CO*)cc1

Tested on: BDF1 mice, P388 leukemia ip, median survival T/C
Assay: NCI In Vivo Anticancer Drug Screen. Data for tumor model P388 Leukemia (intraperitoneal) in B6D2F1 (BDF1) mice
Details: endpoint: median survival time, higher = longer survival
Procedure, shortened: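 Transplantable tumour in mice; compound vs vehicle dosing; survival scored; ratio of treated to control reported.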

[1] = dose: 75.0 mg/kg/injection, schedule: Q01DX009 (ip), vehicle: saline
[2] = dose: 100.0 mg/kg/injection, schedule: Q04DX003 (ip), vehicle: saline
[3] = dose: 200.0 mg/kg/injection, schedule: Q04DX003 (ip), vehicle: saline
[4] = dose: 100.0 mg/kg/injection, schedule: Q01DX009 (ip), vehicle: saline with Tween-80
[5] = dose: 100.0 mg/kg/injection, schedule: Q04DX003 (ip), vehicle: saline with Tween-80
[6] = dose: 200.0 mg/kg/injection, schedule: Q01DX009 (ip), vehicle: saline with Tween-80
[7] = dose: 200.0 mg/kg/injection, schedule: Q04DX003 (ip), vehicle: saline with Tween-80
[8] = dose: 400.0 mg/kg/injection, schedule: Q01DX009 (ip), vehicle: saline with Tween-80
[9] = dose: 400.0 mg/kg/injection, schedule: Q04DX003 (ip), vehicle: saline with Tween-80
[10] = dose: 50.0 mg/kg/injection, schedule: Q01DX009 (ip), vehicle: Klucel (hydroxypropylcellulose) (HPC)
[11] = dose: 100.0 mg/kg/injection, schedule: Q01DX009 (ip), vehicle: Klucel (hydroxypropylcellulose) (HPC)
[12] = dose: 200.0 mg/kg/injection, schedule: Q01DX009 (ip), vehicle: Klucel (hydroxypropylcellulose) (HPC)
[13] = dose: 6.25 mg/kg/injection, schedule: Q01DX009 (ip), vehicle: Klucel (hydroxypropylcellulose) (HPC)
[14] = dose: 12.5 mg/kg/injection, schedule: Q01DX009 (ip), vehicle: Klucel (hydroxypropylcellulose) (HPC)
[15] = dose: 25.0 mg/kg/injection, schedule: Q01DX009 (ip), vehicle: Klucel (hydroxypropylcellulose) (HPC)
[16] = dose: 100.0 mg/kg/injection, schedule: Q04DX003 (ip), vehicle: Klucel (hydroxypropylcellulose) (HPC)
[17] = dose: 50.0 mg/kg/injection, schedule: Q01DX009 (ip), vehicle: saline with Tween-80

SMILES: COc1ccc(Cc2nccc3c(OC)c(OC)ccc23)cc1OC
- T/C (dose: 25.0 mg/kg/injection, schedule: Q01DX009 (ip), vehicle: saline): 116 % of control
- T/C (dose: 50.0 mg/kg/injection, schedule: Q01DX009 (ip), vehicle: saline): 106 % of control and 119 % of control
- T/C (dose: 50.0 mg/kg/injection, schedule: Q04DX003 (ip), vehicle: saline): 103 % of control
- T/C [1]: 119 % of control
- T/C (dose: 100.0 mg/kg/injection, schedule: Q01DX009 (ip), vehicle: saline): 119 % of control
- T/C [2]: 103 % of control
- T/C (dose: 200.0 mg/kg/injection, schedule: Q01DX009 (ip), vehicle: saline): 87 % of control
- T/C [3]: 87 % of control

SMILES: COc1ccc(C2(C#N)CC2)cc1
- T/C [4]: 95 % of control
- T/C [5]: 91 % of control
- T/C [6]: 100 % of control
- T/C [7]: 100 % of control
- T/C [8]: 104 % of control
- T/C [9]: 108 % of control

SMILES: Cc1cc2nc3c(nc2cc1C)-c1ccccc1C3=O
- T/C [5]: 110 % of control
- T/C [7]: 100 % of control
- T/C [9]: 100 % of control

SMILES: CC(C)(C)OC(=O)NCC(=O)NCC(=O)NCC(=O)OCc1ccccc1 (Boc-Gly-Gly-Gly-OBn)
- T/C (dose: 50.0 mg/kg/injection, schedule: Q01DX005 (ip), vehicle: saline with Tween-80): 95 % of control
- T/C (dose: 100.0 mg/kg/injection, schedule: Q01DX005 (ip), vehicle: saline with Tween-80): 98 % of control

SMILES: Cc1ccc(CNc2ccc(C)c(Cl)c2)cc1
- T/C (dose: 100.0 mg/kg/injection, schedule: Q01DX009 (ip), vehicle: other): 104 % of control
- T/C (dose: 200.0 mg/kg/injection, schedule: Q01DX009 (ip), vehicle: other): 113 % of control
- T/C (dose: 400.0 mg/kg/injection, schedule: Q01DX009 (ip), vehicle: other): 118 % of control

SMILES: O=C(NC(CSC(=O)c1ccccc1)C(=O)O)OCc1ccccc1 (centres undefined)
- T/C [10]: 95 % of control
- T/C [11]: 95 % of control
- T/C [12]: 100 % of control

SMILES: COc1ccc(CC2OCCC3c4ccccc4NC23)cc1OC (centres undefined)
- T/C [5]: 93 % of control
- T/C [7]: 109 % of control
- T/C [9]: 111 % of control

SMILES: N/C(CCNO)=N\O
- T/C [1]: 96 % of control
- T/C (dose: 150.0 mg/kg/injection, schedule: Q01DX009 (ip), vehicle: saline): 86 % of control
- T/C (dose: 300.0 mg/kg/injection, schedule: Q01DX009 (ip), vehicle: saline): 96 % of control

SMILES: Cc1nn(C)c2ccc([N+](=O)[O-])cc12
- T/C [11]: 118 % of control
- T/C [12]: 104 % of control
- T/C (dose: 400.0 mg/kg/injection, schedule: Q01DX009 (ip), vehicle: Klucel (hydroxypropylcellulose) (HPC)): 122 % of control

SMILES: CC(=O)[C@H]1CC[C@H]2[C@@H]3CCC4=CC(=O)[C@H](C)C[C@]4(C)[C@H]3C(=O)C[C@]12C
- T/C [4]: 90 % of control
- T/C [6]: 95 % of control

SMILES: COC(OC)c1[nH]c(=S)[nH]c(=O)c1Cc1cccc2ccccc12
- T/C [4]: 111 % of control
- T/C [5]: 100 % of control
- T/C [6]: 92 % of control
- T/C [7]: 91 % of control
- T/C [8]: 88 % of control
- T/C [9]: 87 % of control

SMILES: O=C(N=c1cc(-c2ccc(Cl)cc2)ss1)C(Cc1ccccc1)N1C(=O)c2ccccc2C1=O (centres undefined)
- T/C (dose: 6.25 mg/kg/injection, schedule: Q01DX009 (ip), vehicle: water): 101 % of control
- T/C (dose: 6.25 mg/kg/injection, schedule: Q04DX003 (ip), vehicle: water): 110 % of control
- T/C (dose: 12.5 mg/kg/injection, schedule: Q01DX009 (ip), vehicle: water): 104 % of control
- T/C (dose: 12.5 mg/kg/injection, schedule: Q04DX003 (ip), vehicle: water): 100 % of control
- T/C (dose: 25.0 mg/kg/injection, schedule: Q01DX009 (ip), vehicle: water): 108 % of control
- T/C (dose: 25.0 mg/kg/injection, schedule: Q04DX003 (ip), vehicle: water): 110 % of control
- T/C (dose: 50.0 mg/kg/injection, schedule: Q01DX009 (ip), vehicle: water): 104 % of control
- T/C (dose: 50.0 mg/kg/injection, schedule: Q04DX003 (ip), vehicle: water): 104 % of control
- T/C (dose: 100.0 mg/kg/injection, schedule: Q01DX009 (ip), vehicle: water): 108 % of control
- T/C (dose: 100.0 mg/kg/injection, schedule: Q04DX003 (ip), vehicle: water): 107 % of control
- T/C (dose: 200.0 mg/kg/injection, schedule: Q01DX009 (ip), vehicle: water): 108 % of control

SMILES: C=CC(=O)NCNC(=O)CCBr
- T/C [7]: 150 % of control
- T/C (dose: 300.0 mg/kg/injection, schedule: Q04DX003 (ip), vehicle: saline with Tween-80): 170 % of control

SMILES: CN(C)CCCN1CCC2(CC[C@H]3CCCC[C@@H]3C2)CC1
- T/C (dose: 18.75 mg/kg/injection, schedule: Q04DX003 (ip), vehicle: saline): 100 % of control
- T/C (dose: 37.5 mg/kg/injection, schedule: Q04DX003 (ip), vehicle: saline): 109 % of control
- T/C (dose: 75.0 mg/kg/injection, schedule: Q04DX003 (ip), vehicle: saline): 113 % of control

SMILES: Cc1nc2c(N)nn(C)c2nc1C
- T/C [5]: 100 % of control
- T/C [7]: 100 % of control

SMILES: C(COCCOCC1CO1)OCCOCC1CO1 (centres undefined)
- T/C (dose: 50.0 mg/kg/injection, schedule: Q01DX010 (ip), vehicle: saline): 109 % of control
- T/C (dose: 200.0 mg/kg/injection, schedule: Q01DX010 (ip), vehicle: saline): 150 % of control
- T/C (dose: 400.0 mg/kg/injection, schedule: Q01DX010 (ip), vehicle: saline): 154 % of control and 172 % of control

SMILES: Nc1ccccc1C(=O)N/N=C\c1ccc(O)cc1
- T/C [4]: 110 % of control
- T/C [6]: 94 % of control

SMILES: CCCCCCC(=O)/C=C/c1ccc(N(C)C)cc1
- T/C [4]: 97 % of control
- T/C [6]: 97 % of control
- T/C [8]: 93 % of control

SMILES: CC(=O)OC1=NC(C)c2c1cc(OC(C)=O)[nH]c2=O (centres undefined)
- T/C [13]: 88 % of control
- T/C [14]: 96 % of control
- T/C [15]: 96 % of control
- T/C [16]: 112 % of control
- T/C (dose: 133.0 mg/kg/injection, schedule: Q04DX003 (ip), vehicle: Klucel (hydroxypropylcellulose) (HPC)): 121 % of control

SMILES: COC(=O)C(C)CN1CC(C)OC(C)C1 (centres undefined)
- T/C [2]: 113 % of control
- T/C [3]: 100 % of control
- T/C (dose: 400.0 mg/kg/injection, schedule: Q04DX003 (ip), vehicle: saline): 100 % of control

SMILES: CN(C)P(N)(=S)N(C)C
- T/C [17]: 96 % of control
- T/C [4]: 91 % of control
- T/C [6]: 96 % of control

SMILES: C=C1C(=O)OC2/C=C(\CO)C(OC(C)=O)CC(O)/C(C)=C/C(OC(=O)C(C)CC)C12 (centres undefined)
- T/C [13]: 110 % of control
- T/C [14]: 108 % of control
- T/C [15]: 119 % of control
- T/C [10]: 117 % of control

SMILES: [O-]c1c[n+](-c2ccccc2)no1
- T/C [17]: 119 % of control
- T/C [6]: 94 % of control

SMILES: CN(C)CC(C(=O)Cc1ccccc1)c1ccccc1 (centres undefined)
- T/C [17]: 102 % of control
- T/C [4]: 111 % of control

SMILES: O=C[C@@H](CO)O[C@H](C=O)n1cnc2c(=O)[nH]cnc21
- T/C (dose: 108.0 mg/kg/injection, schedule: Q04DX003 (ip), vehicle: water): 170 % of control
- T/C (dose: 180.0 mg/kg/injection, schedule: Q04DX003 (ip), vehicle: water): 179 % of control and 184 % of control
- T/C (dose: 300.0 mg/kg/injection, schedule: Q04DX003 (ip), vehicle: water): 227 % of control and 247 % of control

SMILES: CC1(C)C2CC3C(C(=O)O)CCCC3(C2)C1Br (centres undefined)
- T/C [16]: 90 % of control
- T/C (dose: 200.0 mg/kg/injection, schedule: Q04DX003 (ip), vehicle: Klucel (hydroxypropylcellulose) (HPC)): 100 % of control
- T/C (dose: 400.0 mg/kg/injection, schedule: Q04DX003 (ip), vehicle: Klucel (hydroxypropylcellulose) (HPC)): 95 % of control

SMILES: CC(C)(COC(=O)c1cc(Br)ccc1Br)NC(=O)c1cc(Br)ccc1Br
- T/C [17]: 91 % of control
- T/C [4]: 97 % of control
- T/C [6]: 97 % of control

SMILES: CC(=O)NC(C)C(=O)NC(CC(=O)O)C(=O)O (centres undefined)
- T/C (dose: 50.0 mg/kg/injection, schedule: Q01DX005 (ip), vehicle: saline): 97 % of control
- T/C (dose: 100.0 mg/kg/injection, schedule: Q01DX005 (ip), vehicle: saline): 100 % of control
- T/C (dose: 200.0 mg/kg/injection, schedule: Q01DX005 (ip), vehicle: saline): 103 % of control
